Experimental data: patent publication US6737383B1, “Herbicidal oxadiazolidines” (priority 1999, dated 2004)

Columns and labels:
bedstraw = test: Test B pre/postemergence bedstraw; assay type: in vivo, Galium aparine
Outline: (§1)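 Herbicidal effect was estimated by eye on a ten-point control scale after plants spent twelve to sixteen days in a greenhouse following soil or foliar treatment. Foliar sprays targeted plants at one to four leaves; all doses were formulated in a non-phytotoxic solvent with surfactant.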

blackgrass = test: Test B pre/postemergence blackgrass; assay type: in vivo, Alopecurus myosuroides
Outline: as §1

surinam grass = test: Test B pre/postemergence surinam grass; assay type: in vivo, Brachiaria decumbens
Outline: as §1

cocklebur = test: Test B pre/postemergence cocklebur; assay type: in vivo, Xanthium strumarium
Outline: as §1

corn = test: Test B pre/postemergence corn; assay type: in vivo, Zea mays
Outline: as §1

crabgrass = test: Test B pre/postemergence crabgrass; assay type: in vivo, Digitaria sanguinalis
Outline: as §1

giant foxtail = test: Test B pre/postemergence giant foxtail; assay type: in vivo, Setaria faberii
Outline: as §1

pigweed = test: Test B pre/postemergence pigweed; assay type: in vivo, Amaranthus retroflexus
Outline: as §1

soybean = test: Test B pre/postemergence soybean; assay type: in vivo, Glycine max
Outline: as §1

sugar beet = test: Test B pre/postemergence sugar beet; assay type: in vivo, Beta vulgaris
Outline: as §1

velvetleaf = test: Test B pre/postemergence velvetleaf; assay type: in vivo, Abutilon theophrasti
Outline: as §1

wild oat = test: Test B pre/postemergence wild oat; assay type: in vivo, Avena fatua
Outline: as §1

purple nutsedge = test: Test B pre/postemergence purple nutsedge; assay type: in vivo, Cyperus rotundus
Outline: as §1

rice = test: Test B flood test rice; assay type: in vivo, Oryza sativa
Outline: (§2)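 Read-out is a visual response score from 0 (no effect) to 10 (complete control), assigned by comparison with untreated controls. Treatment was applied at the 2-leaf stage, and plants stayed in the greenhouse for twelve to sixteen days before scoring.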

smallflower flatsedge = test: Test B flood test smallflower flatsedge; assay type: in vivo, Cyperus difformis
Outline: as §2

bamyardgrass = test: Test B flood test barnyardgrass; assay type: in vivo, Echinochloa crus-galli
Outline: as §2

[1] = Postemergence, Rate 125 g/ha, scale of 0 to 10 where 0 is no effect and 10 is complete control
[2] = Preemergence, Rate 125 g/ha, 0 is no effect, 10 is complete control
[3] = Preemergence, Rate 250 g/ha, scale 0 to 10, 0 is no effect, 10 is complete control
[4] = Preemergence, Rate 500 g/ha, scale 0 to 10 (0 no effect, 10 complete control)
[5] = Rate 62 g/ha, Postemergence, scale of 0 to 10 where 0 is no effect and 10 is complete control
[6] = Rate 250 g/ha, Postemergence, scale 0 to 10, 0 is no effect, 10 is complete control
[7] = Preemergence, Rate 62 g/ha, scale 0 to 10 (0 no effect, 10 complete control)
[8] = Rate 500 g/ha, Postemergence, scale 0 to 10
[9] = Postemergence (flood test species), Rate 125 g/ha, scale of 0 to 10 where 0 is no effect and 10 is complete control
[10] = Rate 62 g/ha, Postemergence section, flood test species, scale of 0 to 10 where 0 is no effect and 10 is complete control
[11] = Rate 250 g/ha, Postemergence (flood test), scale 0 to 10, 0 is no effect, 10 is complete control
[12] = Rate 500 g/ha, listed under Postemergence (flood test species), scale 0 to 10

Structure (SMILES): CC(C)c1noc(C(C)C)c1-n1c(=O)on(C(=O)N(c2ccc(F)cc2)C(C)C)c1=O [Compound 135]
- Bedstraw plant response rating (bedstraw; [1]): 0
- Bedstraw plant response rating (0 to 10 scale) (bedstraw; [2]): 0
- Bedstraw plant response rating (bedstraw; [3]): 0
- Bedstraw plant response rating (bedstraw; [4]): 4
- Bedstraw plant response rating (bedstraw; [5]): 0
- Plant response rating, Bedstraw (bedstraw; [6]): 2
- Blackgrass plant response rating (blackgrass; [1]): 0
- Blackgrass plant response rating (blackgrass; [7]): 0
- Blackgrass plant response rating (0 to 10 scale) (blackgrass; [2]): 0
- Blackgrass plant response rating (blackgrass; [3]): 0
- Blackgrass plant response rating (blackgrass; [4]): 4
- Blackgrass plant response rating (blackgrass; [5]): 0
- Plant response rating, Blackgrass (blackgrass; [6]): 0
- Blackgrass plant response rating (blackgrass; [8]): 0
- B. signalgrass plant response rating (surinam grass; [1]): 0
- B. signalgrass plant response rating (surinam grass; [7]): 0
- B. signalgrass plant response rating (0 to 10 scale) (surinam grass; [2]): 0
- B. signalgrass plant response rating (surinam grass; [3]): 3
- B. signalgrass plant response rating (surinam grass; [4]): 4
- B. signalgrass plant response rating (surinam grass; [5]): 0
- Plant response rating, B. signalgrass (surinam grass; [6]): 0
- B. signalgrass plant response rating (surinam grass; Rate 500 g/ha, Postemergence, scale of 0 to 10 where 0 is no effect and 10 is complete control): 0
- Cocklebur plant response rating (cocklebur; [1]): 0
- Cocklebur plant response rating (cocklebur; [7]): 0
- Cocklebur plant response rating (0 to 10 scale) (cocklebur; [2]): 0
- Cocklebur plant response rating (cocklebur; [3]): 0
- Cocklebur plant response rating (cocklebur; [4]): 0
- Cocklebur plant response rating (cocklebur; [5]): 0
- Plant response rating, Cocklebur (cocklebur; [6]): 0
- Cocklebur plant response rating (cocklebur; [8]): 0
- Corn plant response rating (corn; [1]): 0
- Corn plant response rating (corn; [7]): 0
- Corn plant response rating (0 to 10 scale) (corn; [2]): 0
- Corn plant response rating (corn; [3]): 0
- Corn plant response rating (corn; [4]): 0
- Corn plant response rating (corn; [5]): 0
- Plant response rating, Corn (corn; [6]): 0
- Corn plant response rating (corn; [8]): 0
- Crabgrass plant response rating (crabgrass; [1]): 0
- Crabgrass plant response rating (crabgrass; [7]): 0
- Crabgrass plant response rating (0 to 10 scale) (crabgrass; [2]): 0
- Crabgrass plant response rating (crabgrass; [3]): 0
- Crabgrass plant response rating (crabgrass; [4]): 4
- Crabgrass plant response rating (crabgrass; [5]): 0
- Plant response rating, Crabgrass (crabgrass; [6]): 0
- Giant foxtail plant response rating (giant foxtail; [1]): 0
- Giant foxtail plant response rating (giant foxtail; [7]): 0
- Giant foxtail plant response rating (0 to 10 scale) (giant foxtail; [2]): 0
- Giant foxtail plant response rating (giant foxtail; [3]): 0
- Giant foxtail plant response rating (giant foxtail; [5]): 0
- Plant response rating, Giant foxtail (giant foxtail; [6]): 0
- Giant foxtail plant response rating (giant foxtail; [8]): 0
- Redroot pigweed plant response rating (pigweed; [1]): 0
- Redroot pigweed plant response rating (0 to 10 scale) (pigweed; [2]): 3
- Redroot pigweed plant response rating (pigweed; [3]): 4
- Redroot pigweed plant response rating (pigweed; [4]): 4
- Redroot pigweed plant response rating (pigweed; [5]): 0
- Plant response rating, Redroot pigweed (pigweed; [6]): 0
- Redroot pigweed plant response rating (pigweed; [8]): 0
- Soybean plant response rating (soybean; [1]): 2
- Soybean plant response rating (soybean; [7]): 0
- Soybean plant response rating (0 to 10 scale) (soybean; [2]): 0
- Soybean plant response rating (soybean; [3]): 0
- Soybean plant response rating (soybean; [4]): 0
- Soybean plant response rating (soybean; [5]): 2
- Plant response rating, Soybean (soybean; [6]): 3
- Soybean plant response rating (soybean; [8]): 3
- Sugarbeets plant response rating (sugar beet; [1]): 0
- Sugarbeets plant response rating (sugar beet; [7]): 0
- Sugarbeets plant response rating (0 to 10 scale) (sugar beet; [2]): 0
- Sugarbeets plant response rating (sugar beet; [3]): 0
- Sugarbeets plant response rating (sugar beet; [4]): 0
- Sugarbeets plant response rating (sugar beet; [5]): 0
- Plant response rating, Sugarbeets (sugar beet; [6]): 0
- Sugarbeets plant response rating (sugar beet; [8]): 0
- Velvetleaf plant response rating (velvetleaf; [1]): 0
- Velvetleaf plant response rating (velvetleaf; [7]): 0
- Velvetleaf plant response rating (0 to 10 scale) (velvetleaf; [2]): 0
- Velvetleaf plant response rating (velvetleaf; [3]): 0
- Velvetleaf plant response rating (velvetleaf; [4]): 0
- Velvetleaf plant response rating (velvetleaf; [5]): 0
- Plant response rating, Velvetleaf (velvetleaf; [6]): 0
- Velvetleaf plant response rating (velvetleaf; [8]): 0
- Wild oats plant response rating (wild oat; [1]): 0
- Wild oats plant response rating (wild oat; [7]): 0
- Wild oats plant response rating (0 to 10 scale) (wild oat; [2]): 0
- Wild oats plant response rating (wild oat; [3]): 0
- Wild oats plant response rating (wild oat; [4]): 0
- Wild oats plant response rating (wild oat; [5]): 0
- Plant response rating, Wild oats (wild oat; [6]): 0
- Wild oats plant response rating (wild oat; [8]): 0
- Nutsedge plant response rating (purple nutsedge; [1]): 0
- Nutsedge plant response rating (purple nutsedge; [7]): 0
- Nutsedge plant response rating (0 to 10 scale) (purple nutsedge; [2]): 0
- Nutsedge plant response rating (purple nutsedge; [3]): 0
- Nutsedge plant response rating (purple nutsedge; [4]): 0
- Nutsedge plant response rating (purple nutsedge; [5]): 0
- Plant response rating, Nutsedge (purple nutsedge; [6]): 0
- Nutsedge plant response rating (purple nutsedge; [8]): 0
- Rice plant response rating (rice; [9]): 0
- Rice plant response rating (rice; [10]): 0
- Plant response rating, Rice (rice; [11]): 0
- Rice plant response rating (rice; [12]): 0
- S. Flatsedge plant response rating (smallflower flatsedge; [9]): 0
- S. Flatsedge plant response rating (smallflower flatsedge; [10]): 0
- Plant response rating, S. Flatsedge (smallflower flatsedge; [11]): 0
- S. Flatsedge plant response rating (smallflower flatsedge; [12]): 0
- Barnyardgrass plant response rating (bamyardgrass; [9]): 0
- Barnyardgrass plant response rating (bamyardgrass; [10]): 0
- Plant response rating, Barnyardgrass (bamyardgrass; [11]): 0
- Barnyardgrass plant response rating (bamyardgrass; Rate 500 g/ha, listed under Postemergence (flood test species), scale 0 to 10, 0 no effect, 10 complete control): 0
